Measured values reported in patent publication US12448369B2 (Edgewise Therapeutics, Inc., priority 2023, dated 2025).

How the values were obtained:
[1] = system: Porcine atria myofibrils (atrial myosin ATPase); experiment: Myofibril ATPase assay, porcine atria myofibrils; assay type: biochemical; conditions: porcine atria myofibrils
Method in brief: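 Atrial myofibril ATPase measured by NADH-coupled absorbance at 340 nm; vehicle-normalized slopes fitted to give Y75 or Y125 values.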

[2] = system: Rabbit Psoas myofibrils (skeletal myosin ATPase); experiment: Myofibril ATPase assay, rabbit psoas (skeletal) myofibrils; assay type: biochemical; conditions: rabbit psoas myofibrils
Method in brief: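 Values derive from concentration–response fits of NADH consumption rates at 340 nm, normalized to vehicle-only wells, as Y75 or Y125. Myofibril ATP turnover was linked to NADH via PK/LDH in Ca/EGTA-buffered PIPES, pH 7.0, and read over 75 min.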

[3] = target: T1, Porcine ventricle myofibrils (ventricular myosin ATPase) (Sus scrofa, UniProt P79293); experiment: Myofibril ATPase assay, porcine ventricle myofibrils; assay type: biochemical, porcine (Yucatan minipigs); conditions: porcine ventricle myofibrils
T1 construct: Myofibrils from porcine cardiac muscle was isolated from the left ventricle of Yucatan minipigs; tissue Exemplar Genetics; host or cells: left ventricle of Yucatan minipigs, myofibrils prepared in house
Method in brief: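 ATPase activity of porcine left-ventricle myofibrils (Yucatan minipig) was followed through PK-LDH coupling as NADH loss at 340 nm, read every 1.5-2 min for 75 min. Slopes were normalised to vehicle wells and fitted to a 4-parameter logistic model. Values are Y75, the concentration giving a 25% drop in activity, or Y125 for activators.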

[4] = Y75 value (75% activity relative to no compound)

T1 sequence (P79293 whole entry): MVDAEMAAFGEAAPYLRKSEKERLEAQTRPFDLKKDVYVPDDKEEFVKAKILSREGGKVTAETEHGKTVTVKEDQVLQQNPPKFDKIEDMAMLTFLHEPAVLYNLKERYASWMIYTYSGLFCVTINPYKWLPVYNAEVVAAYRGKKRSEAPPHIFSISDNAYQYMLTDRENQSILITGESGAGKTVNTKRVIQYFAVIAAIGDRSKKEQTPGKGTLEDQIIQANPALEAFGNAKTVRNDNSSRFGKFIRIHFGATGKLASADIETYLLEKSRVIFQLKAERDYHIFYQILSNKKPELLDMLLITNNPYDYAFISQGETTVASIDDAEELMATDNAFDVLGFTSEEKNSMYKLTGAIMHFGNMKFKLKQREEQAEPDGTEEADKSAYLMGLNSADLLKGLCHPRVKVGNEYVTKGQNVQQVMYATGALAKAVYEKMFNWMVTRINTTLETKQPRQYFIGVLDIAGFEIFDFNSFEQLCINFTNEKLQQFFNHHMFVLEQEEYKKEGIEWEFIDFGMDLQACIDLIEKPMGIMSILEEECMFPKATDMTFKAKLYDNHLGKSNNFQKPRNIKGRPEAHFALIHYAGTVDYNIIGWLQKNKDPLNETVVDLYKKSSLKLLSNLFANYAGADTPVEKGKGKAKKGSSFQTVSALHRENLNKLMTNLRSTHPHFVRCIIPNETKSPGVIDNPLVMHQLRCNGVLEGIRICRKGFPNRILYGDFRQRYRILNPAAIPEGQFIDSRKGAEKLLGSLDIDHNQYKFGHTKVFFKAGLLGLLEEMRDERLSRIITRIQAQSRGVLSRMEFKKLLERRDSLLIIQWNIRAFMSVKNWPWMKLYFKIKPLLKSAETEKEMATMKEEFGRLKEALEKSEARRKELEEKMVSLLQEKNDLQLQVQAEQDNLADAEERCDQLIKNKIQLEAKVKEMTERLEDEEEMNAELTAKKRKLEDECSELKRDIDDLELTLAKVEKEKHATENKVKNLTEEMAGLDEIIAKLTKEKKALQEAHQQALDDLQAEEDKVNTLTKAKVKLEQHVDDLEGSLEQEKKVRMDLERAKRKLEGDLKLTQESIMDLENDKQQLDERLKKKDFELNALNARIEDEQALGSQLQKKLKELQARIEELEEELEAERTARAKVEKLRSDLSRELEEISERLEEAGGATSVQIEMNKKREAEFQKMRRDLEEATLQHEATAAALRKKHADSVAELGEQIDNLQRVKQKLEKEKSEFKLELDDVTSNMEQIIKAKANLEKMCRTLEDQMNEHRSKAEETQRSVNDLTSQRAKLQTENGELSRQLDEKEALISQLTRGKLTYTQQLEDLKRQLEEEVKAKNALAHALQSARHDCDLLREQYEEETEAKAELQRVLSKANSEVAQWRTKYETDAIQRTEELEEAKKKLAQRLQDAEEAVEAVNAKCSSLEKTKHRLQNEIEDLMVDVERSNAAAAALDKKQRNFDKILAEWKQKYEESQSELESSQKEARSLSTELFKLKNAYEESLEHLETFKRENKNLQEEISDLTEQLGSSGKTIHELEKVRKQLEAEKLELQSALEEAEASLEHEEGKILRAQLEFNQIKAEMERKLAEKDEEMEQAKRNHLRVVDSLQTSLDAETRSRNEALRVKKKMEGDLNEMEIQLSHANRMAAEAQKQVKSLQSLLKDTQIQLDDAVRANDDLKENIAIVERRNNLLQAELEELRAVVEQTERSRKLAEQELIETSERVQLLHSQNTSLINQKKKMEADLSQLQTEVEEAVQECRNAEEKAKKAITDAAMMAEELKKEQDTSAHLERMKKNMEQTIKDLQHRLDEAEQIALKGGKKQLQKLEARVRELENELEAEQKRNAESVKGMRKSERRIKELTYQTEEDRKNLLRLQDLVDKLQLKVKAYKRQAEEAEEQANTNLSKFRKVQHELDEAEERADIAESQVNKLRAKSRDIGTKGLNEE

SMILES | Atrial EC25 ([1]; Y75 value (no ‡ mark)) [µM] | Skeletal EC25 ([2]; Y75 value (no ‡ mark)) [µM] | Ventricular EC25 ([3]; Y75 value (no ‡ mark)) [µM] | Atrial EC25 [1, 4] [µM] | Skeletal EC25 ([2]; Y75 value) [µM] | Ventricular EC25 ([3]; Y75 value) [µM] | Skeletal EC25 ([2]; ‡ Y125 value, not a Y75 value (125% activity relative to no compound))
CC(NC(=O)C(F)(F)c1cc2cc(F)ccc2[nH]c1=O)c1cc(C#N)ccn1 (single isomer, unassigned) [Compound 2573] | 100.00 | 100.00 | 100.00 |  |  |  | 
Cc1c(CC(=O)N[C@@H](C)c2ncc(F)cc2F)c(=O)[nH]c2ccc(F)c(C(F)(F)F)c12 [compound 10] | 0.16 | 0.05 | 0.39 |  |  |  | 
Cc1c(C2(C(=O)N[C@H](C)c3cc(C#N)ccn3)CC2)c(=O)[nH]c2ccc(F)cc12 (single isomer, unassigned) [compound 2577] | 19.55 | 100.00 | 100.00 |  |  |  | 
C[C@H](NC(=O)C(F)(F)c1cc2cc(F)ccc2[nH]c1=O)c1cc(C#N)ccn1 (single isomer, unassigned) [compound 2574] | 100.00 | 100.00 | 100.00 |  |  |  | 
C#Cc1nccc2[nH]c(=O)c(CC(=O)N[C@@H](C)c3cnc(N=[N+]=[N-])cc3C)c(C)c12 [compound 488] |  |  |  | 12.56 | 1.15 | 4.94 | 
Cc1c(C2(C(=O)N[C@H](C)c3ncc(C#N)cn3)CC2)c(=O)[nH]c2ccc(F)cc12 (single isomer, unassigned) [compound 2590] | 0.43 | 1.30 | 3.41 |  |  |  | 
C[C@H](NC(=O)Cc1cc2ccc(F)cc2[nH]c1=O)c1ncc(C#N)cn1 (single isomer, unassigned) [compound 2034] | 100.00 |  | 100.00 |  |  |  | 100.00‡ μM
Cc1c(CC(=O)N[C@H](C)c2ccc(C#N)cc2F)c(=O)[nH]c2ccc(F)c(C3CC3)c12 [compound 69] | 0.03 | 0.01 | 0.11 |  |  |  | 
C[C@H](NC(=O)[C@H](C)c1cc2c(F)c(F)ccc2[nH]c1=O)c1ncc(C#N)cc1F (relative stereo) [compound 2604, (2R*)-N-[(1S)-1-(5-cyano-3-fluoropyridin-2-yl)ethyl]-2-(5,6-difluoro-2-oxo-1H-quinolin-3-yl)propanamide] | 0.12 | 0.54 | 0.75 |  |  |  | 
C[C@H](NC(=O)[C@@H](C)c1cc2c(F)cccc2[nH]c1=O)c1ccc(F)cc1F (single isomer, unassigned) [compound 102] | 100.00 | 3.90 | 100.00 |  |  |  | 
C[C@H](NC(=O)[C@H](C)c1c(C(F)(F)F)c2cc(F)ccc2[nH]c1=O)c1ccc(F)cc1F (single isomer, unassigned) [compound 100] | 0.06 | 0.04 | 0.69 |  |  |  | 
Cc1c(CC(=O)N[C@@H](C)c2ncc(C#N)cc2F)c(=O)[nH]c2ccc(OC(F)(F)F)nc12 [compound 456] |  |  |  | 0.66 | 0.53 | 3.69 | 
Cc1c(CC(=O)N[C@H]2COCc3cc(C#N)cnc32)c(=O)[nH]c2ccc(F)cc12 [compound 1057] | 100.00 | 21 | 100.00 |  |  |  | 
Cc1cc(C#N)nnc1[C@H](C)NC(=O)Cc1c(C)c2cc(F)ccc2[nH]c1=O [compound 1059] | 0.13 | 0.39 | 0.16 |  |  |  | 
Cc1nc(C#N)ncc1[C@H](C)NC(=O)Cc1c(C)c2c(F)c(F)ccc2[nH]c1=O [compound 1132] | 0.10 | 0.02 | 0.05 |  |  |  | 
Cc1c(CC(=O)N[C@H](C)c2ccc(C#N)cc2F)c(=O)[nH]c2cnnc(C#N)c12 [compound 171] |  |  |  | 22.46 | 15.02 | 100.00 | 
Cc1c(C(F)(F)C(=O)N[C@@H](C)c2ncc(C#N)cn2)c(=O)[nH]c2ccc(F)cc12 (single isomer, unassigned) [compound 2595] | 0.36 | 0.17 | 0.45 |  |  |  | 
C[C@@H](NC(=O)C1(c2cc3c(F)c(F)ccc3[nH]c2=O)CC1)c1ncc(C#N)cn1 (single isomer, unassigned) [compound 2549] | 0.97 | 7.56 | 100.00 |  |  |  | 
C[C@@H](NC(=O)Cc1c(Cl)c2cnccc2[nH]c1=O)c1ccc(C#N)cn1 [compound 453] |  |  |  | 8.79 | 9.12 | 100.00 | 
Cc1nccc2[nH]c(=O)c(C(F)(F)C(=O)N[C@@H](C)c3cnc(C#N)cn3)c(C)c12 (single isomer, unassigned) [compound 3521] |  |  |  | 14.61 | 2.68 | 34.58 | 
Cc1cc2[nH]c(=O)c(CC(=O)N[C@@H](C)c3ccc(F)cc3F)c(C)c2cn1 [compound 446] |  |  |  | 100.00 | 4.59 | 100.00 | 
Cc1c(CC(=O)N[C@H]2COc3cc(C#N)cc(F)c32)c(=O)[nH]c2ccc(F)c(C#N)c12 (single isomer, unassigned) [compound 60] | 0.05 | 0.27 | 0.62 |  |  |  | 
C[C@H](NC(=O)Cc1cc2cc(O)ccc2[nH]c1=O)c1ccc(F)cc1F [compound 125] | 64.80 | 25.67 | 20.89 |  |  |  | 
C[C@H](NC(=O)Cc1cc2cc(F)ccc2[nH]c1=O)c1ccc(C#N)cn1 [compound 1126] | 100.00 | 100.00 | 100.00 |  |  |  | 
Cc1c(C(F)(F)C(=O)N[C@H](C)c2ccc(F)cc2F)c(=O)[nH]c2ccc(F)cc12 [compound 4815] | 1.05 | 1.04 | 100.00 |  |  |  | 
C[C@H](NC(=O)Cc1cc2nc(Cl)ccc2[nH]c1=O)c1ccc(F)cc1F [compound 388] |  |  |  | 1.08 | 0.67 | 38.06 | 
